In general, zone of inhibition refers to the extent of the growth-free halo in a diffusion test. By MIC is commonly meant the lowest concentration that inhibits growth of the organism. High values mean a less susceptible organism, low ones a more susceptible organism. As a reminder, the MBC is the smallest concentration meeting the test's criterion for killing.

For data set [1], the system named is P. aeruginosa TISTR 357. Description: Compatibility with surfactants, residual antibacterial activity. Format: physicochemical, Pseudomonas aeruginosa. The conditions noted are these: no AMP (same value in 1 h, 6 h and 12 h), agar well diffusion, % of non-treated AMP, mean ± SD, n = 3. For orientation: Agar diffusion results depend on both activity and mobility in agar.
Protocol: The AMP was dissolved in sterile purified water and adjusted a final concentration to 16 µg/mL. The sensitivity of the AMP to temperatures of 37, 40, 50, 60, 80, and 100 °C, as well as autoclaving at 121 °C for 15 and 30 min was evaluated. The sensitivity of the AMP to proteolytic enzymes with different digesting characteristics was studied by incubating with a concentration of 1 mg/mL of proteinase K, trypsin, and α-chymotrypsin (Sigma-Aldrich, Warren, MI, USA). The compatibility of the AMP with surfactants was evaluated by exposing the AMP to 1% SDS or 1% Triton X-100 (AppliChem GmbH, Darmstadt, Germany). The degradation of the AMP under various pH conditions, including physiological and extended alkaline conditions, was evaluated by adjusting the pH of the solution to 1.2, 4.5, 6.8, 7.4, 8.0, 10.0, 12.0, and 14.0. After incubation, the pH of the AMP solution was neutralized to the original pH before being assessed for antibacterial activity. The antibacterial assay against P. aeruginosa TISTR 357 was conducted using the agar well diffusion assay in triplicate. The stability profiles are presented as the percentage of the residual activity compared with the non-treatment conditions (mean ± SD), and statistical significance was determined by the Student’s t-test at a p-value < 0.05.

The test system of another data set is S. aureus TISTR 517. Description: Agar well diffusion, antibacterial spectrum. Format: cell-based, Staphylococcus aureus. As for the experimental part:
(§1) The active isolates from the agar overlay assay were transferred into broth media identical to that used during the initial isolation. The cultures were incubated at 30 °C with shaking at 150 rpm for 18 h. The optical density of the starter culture was adjusted to a turbidity of 0.1 OD at 625 nm using a 0.85% sterile NaCl solution before transferring 1 mL of the culture into 49 mL of fresh broth. The inoculum was then incubated at 30 °C with shaking at 150 rpm for 24 h. The CFS was obtained by centrifugation at 10,000× g at 4 °C for 15 min and filtered through a 0.2 µm sterile cellulose acetate syringe filter. The antibacterial activity of the CFS derived from each isolate was investigated using P. aeruginosa TISTR 357, K. pneumoniae TISTR 1383, E. coli TISTR 887, S. typhimurium TISTR 1469, V. parahaemolyticus TISTR 1596, and S. aureus TISTR 517 from the Thailand Institute of Scientific and Technological Research (TISTR), Thailand. The antibiotic-resistant strain, MRSA strain 2468, was kindly provided by the medical technology laboratory at the School of the Allied Health Sciences, Walailak University, Thailand. The microbial indicators were incubated at 37 °C for 18 h on MH agar. […] The experiment was conducted in triplicate, and the mean ± SD of the diameters of the inhibition zones was measured.

The next data set concerns MRSA Strain 2468. In words: Agar well diffusion, antibacterial spectrum. Format: cell-based, methicillin-resistant Staphylococcus aureus. As for the experimental part: as §1
Another data set deals with E. coli TISTR 887. Description: Agar well diffusion, antibacterial spectrum. Format: cell-based, Escherichia coli. As to the method: as §1
Data set [2] deals with K. pneumoniae TISTR 1383. In words: Agar well diffusion, antibacterial spectrum. In kind it is cell-based, Klebsiella pneumoniae. As to the method:
as §1

For data set [3], the system named is P. aeruginosa TISTR 357. Description: Agar well diffusion, antibacterial spectrum. In kind it is cell-based, Pseudomonas aeruginosa. As for the experimental part:
as §1

Data set [4] deals with S. typhimurium TISTR 1469. Description: Agar well diffusion, antibacterial spectrum. Format: cell-based, Salmonella typhimurium. As to the method:
as §1

The test system of data set [5] is V. parahaemolyticus TISTR 1596. Description: Agar well diffusion, antibacterial spectrum. Format: cell-based, Vibrio parahaemolyticus. As for the experimental part:
as §1

For data set [6], the system named is P. aeruginosa TISTR 357. In kind it is cell-based, Pseudomonas aeruginosa. To be noted: 37 °C 24 h, triplicate. As to the method:
(§2) The MIC and MBC of the purified AMP were determined using the broth microdilution method following the guidance provided by the Clinical and Laboratory Standards Institute (CLSI). P. aeruginosa TISTR 357 and K. pneumoniae TISTR 1383 were cultured on MH agar and incubated at 37 °C for 18 h. A single colony of the tested bacteria was suspended in 0.85% NaCl until the suspension turbidity reached an OD of 0.1 at 625 nm. The cells were then diluted to 5 × 10^6 CFU/mL using cation-adjusted Mueller Hinton broth (CAMHB). The diluted cell suspension of 10 µL was transferred into each well of a 96-well plate with a final volume of 100 µL per well. The AMP was added to achieve final concentrations ranging from 0.125 to 64 µg/mL. Colistin was used as the positive control, while antibiotic-free samples were used as negative controls. The 96-well plate was incubated at 37 °C for 24 h. Each strain was tested in triplicate. […] Subsequently, 100 µL of each dilution was spread on MH agar and then incubated at 37 °C for 24 h. The MBC was identified as the lowest concentration at which no bacterial colony growth was observed on the agar plate.

Data set [7] deals with K. pneumoniae TISTR 1383. Format: cell-based, Klebsiella pneumoniae. To be noted: 37 °C 24 h, triplicate. As for the experimental part: as §2
For data set [8] the following is noted: cited from earlier work. From the text:
The AMP of Paenibacillus thiaminolyticus NNS5-6 was sensitive to proteinase K and trypsin, confirming its proteinaceous nature. […] The AMP was also stable across a wide pH range (pH 4.5–10) compared with extremely acidic and alkaline environments. This information could help inform temperature conditions and buffer choices during purification and guide the formulation development of drug delivery systems for suitable administration routes.

[9] abbreviates: agar well diffusion on MH agar, 9 mm wells, 37 °C 18 h, CFS 100 µL, vancomycin 30 µg, colistin 1 µg, mean ± SD, n = 3.
The mark [10] stands for this setting: plated on MH agar after microdilution.

As to `CCCCCCCCCCCCOS(=O)(=O)[O-].[Na+]` [SDS, reference compound], the “antibacterial activity of surfactant alone against P. aeruginosa TISTR 357, given as % residual activity” value in the data set on P. aeruginosa TISTR 357 [1] (1% SDS alone) is reported as 121.76 ± 2.42 %.
On to `CN[C@H](CC(C)C)C(=O)N[C@H]1C(=O)N[C@@H](CC(N)=O)C(=O)N[C@H]2C(=O)N[C@H]3C(=O)N[C@H](C(=O)N[C@H](C(=O)O)c4cc(O)cc(O)c4-c4cc3ccc4O)[C@H](O)c3ccc(c(Cl)c3)Oc3cc2cc(c3O[C@@H]2O[C@H](CO)[C@@H](O)[C@H](O)[C@H]2O[C@H]2C[C@](C)(N)[C@H](O)[C@H](C)O2)Oc2ccc(cc2Cl)[C@H]1O` [Vancomycin], for which the zone of inhibition at 30 µg/disc was found to be 21.6 ± 0.51 mm in the data set on S. aureus TISTR 517 (Staphylococcus aureus, TISTR517, 18 h); 21.8 ± 0.78 mm with MRSA Strain 2468 (Staphylococcus aureus, MRSA, 18 h); 0 mm in the data set on E. coli TISTR 887 (Escherichia coli, TISTR887, 18 h); 0 mm in the data set with K. pneumoniae TISTR 1383 [2] (Klebsiella pneumoniae, TISTR1383, 18 h); 0 mm with P. aeruginosa TISTR 357 [3] (Pseudomonas aeruginosa, TISTR357, 18 h); 0 mm in data set [4] (Salmonella enterica, 18 h). The zone of inhibition at 30 µg/disc in [5] (Vibrio parahaemolyticus, TISTR1596, 18 h) was 0 mm.
Turning to Colistin, the “Zone of Inhibition” value with S. aureus TISTR 517 (setting [9]) was found to be 0.00 ± 0.00 mm; in the data set on MRSA Strain 2468 (setting [9]), 0.00 ± 0.00 mm; in the data set with E. coli TISTR 887 (setting [9]), 18.13 ± 0.88 mm; in the data set with K. pneumoniae TISTR 1383 [2] (setting [9]) it was 18.81 ± 0.39 mm; with P. aeruginosa TISTR 357 [3] (setting [9]) it was 18.05 ± 0.67 mm; in data set [4] (setting [9]), 20.4 ± 0.89 mm. Moreover, the “Zone of Inhibition” value in data set [5] (setting [9]) was determined as 18.8 ± 0.76 mm. Besides, the minimal inhibitory concentration (MIC) stood at 1 µg/mL in the data set on P. aeruginosa TISTR 357 [6] (broth microdilution, CAMHB) and 1 µg/mL against K. pneumoniae TISTR 1383 [7] (broth microdilution, CAMHB). In addition, the MBC in the data set on P. aeruginosa TISTR 357 [6] (setting [10]) and in the data set on K. pneumoniae TISTR 1383 [7] (setting [10]) was 1 µg/mL each time.
Triton X-100 [reference compound]: in the data set with P. aeruginosa TISTR 357 [1] (1% Triton X-100 alone), the “antibacterial activity of surfactant alone against P. aeruginosa TISTR 357, given as % residual activity” value worked out at 126.83 ± 2.72 %.
fusaricidin A: the “sensitivity to protease treatment” value in data set [8] is listed as “insensitive to protease treatment”. The “pH range over which antimicrobial activity is retained” value in data set [8] (fusaricidin A produced by Paenibacillus bovis sp. nov BD3526) is listed as 2.0 to 9.0.

Values taken from paper PMC11428215, “Unveiling a New Antimicrobial Peptide with Efficacy against P. aeruginosa and K. pneumoniae from Mangrove-Derived Paenibacillus thiaminolyticus NNS5-6 and Genomic Analysis” (Antibiotics, 2024).
